# According to patent US20220089609A1, “SUBSTITUTED QUINAZOLINONE DERIVATIVES AND THEIR USE AS POSITIVE ALLOSTERIC MODULATORS OF MGLUR4” (DOMAIN THERAPEUTICS, priority 2018, published 2022):
# Values joined by “and” are separate entries in the source; they are usually repeats but may differ in a detail not shown here. Equal entries are not always repeated. Structures can show the parent of a compound that is named as a salt.
# Molecular target: T1, human mGluR4 (hmGluR4) (Homo sapiens, UniProt Q14833)
# T1 construct: expressed in transfected cells; host or cells: HEK-293 cells, transient co-transfection by electroporation
# Assay: Calcium assay EC50 determination, positive allosteric modulator activity on hmGluR4 transiently over-expressed in HEK-293 cells
# Type: cell-based
# Details: PAM mode with EC20 glutamate; hmGluR4 in HEK-293 cells; intracellular calcium (Fluo4AM); read-out: mGluR4 positive allosteric modulator activity, half maximal effective concentration (EC50)
# Protocol: Compounds are tested successively for their agonist and positive allosteric modulator activities on human mGluR4 (hmGluR4) transiently over-expressed in HEK-293 cells. Compounds exert agonist activity if, by themselves in absence of glutamate, they are able to activate hmGluR4; and they exert positive allosteric modulator activity if they increase the action of glutamate.
# HEK-293 cells are maintained in Modified Eagle's Medium supplemented with 10% Foetal Calf Serum, 1% Penicillin/Streptomycin and 1% non-essential amino acids at 37° C./5% CO2.
# Cells are co-transfected by electroporation with four DNA plasmids encoding hmGluR4, a chimeric G protein allowing redirection of the activation signal to intracellular calcium pathway, and glutamate transporters to decrease extracellular glutamate concentration so as to limit receptor desensitization. After transfection, cells are cultured for 24 h at 37° C./5% CO2.
# Calcium Assay EC50 determination
# Receptor activity is detected by changes in intracellular calcium measured using the fluorescent Ca^2+ sensitive dye, Fluo4AM (Molecular Probes).
# On the day of the assay, culture medium is aspirated and replaced during 3 hours by medium without serum supplemented with 1% Glutamax, 1% Penicillin/Streptomycin and 1% non-essential amino acids. Then, cells are washed with freshly prepared buffer B (HBSS 1× (PAA), Hepes 20 mM, MgSO4-7H2O 1 mM, Na2CO3 3.3 mM, CaCl2-2H2O 1.3 mM, 0.1% BSA, Probenecid 2.5 mM) and loaded at 37° C. in 5% CO2 for 1.5 hours with buffer B containing 1 μM Fluo4AM, 0.1 mg/mL Pluronic Acid, 7 μg/mL Glutamate Pyruvate Transaminase and 2 mM sodium pyruvate. Afterwards cells are washed twice with buffer B. Then cells are detached using StemPro Accutase (Fisher Scientific), resuspended in buffer B and seeded in 384 well plate at a density of 30,000 cells per well. Addition of compounds and intracellular Ca^2+ measurements (excitation 485 nm, emission 525 nm) are performed by the fluorescence microplate reader FLIP^Tetra (Molecular Devices).
# Agonist and positive allosteric modulator activities of compounds are consecutively evaluated on the same cell plate. Agonist activity is first tested during 10 minutes with the addition of compound alone on the cells. Then, cells are stimulated by an EC20 glutamate concentration and fluorescence is recorded for additional 3 minutes. EC20 glutamate concentration is the concentration giving 20% of the maximal glutamate response. Agonist or positive allosteric modulator activity(ies) are evaluated in comparison to basal signals evoked by buffer B or EC20 glutamate alone, respectively.
# T1 sequence (Q14833 33-912): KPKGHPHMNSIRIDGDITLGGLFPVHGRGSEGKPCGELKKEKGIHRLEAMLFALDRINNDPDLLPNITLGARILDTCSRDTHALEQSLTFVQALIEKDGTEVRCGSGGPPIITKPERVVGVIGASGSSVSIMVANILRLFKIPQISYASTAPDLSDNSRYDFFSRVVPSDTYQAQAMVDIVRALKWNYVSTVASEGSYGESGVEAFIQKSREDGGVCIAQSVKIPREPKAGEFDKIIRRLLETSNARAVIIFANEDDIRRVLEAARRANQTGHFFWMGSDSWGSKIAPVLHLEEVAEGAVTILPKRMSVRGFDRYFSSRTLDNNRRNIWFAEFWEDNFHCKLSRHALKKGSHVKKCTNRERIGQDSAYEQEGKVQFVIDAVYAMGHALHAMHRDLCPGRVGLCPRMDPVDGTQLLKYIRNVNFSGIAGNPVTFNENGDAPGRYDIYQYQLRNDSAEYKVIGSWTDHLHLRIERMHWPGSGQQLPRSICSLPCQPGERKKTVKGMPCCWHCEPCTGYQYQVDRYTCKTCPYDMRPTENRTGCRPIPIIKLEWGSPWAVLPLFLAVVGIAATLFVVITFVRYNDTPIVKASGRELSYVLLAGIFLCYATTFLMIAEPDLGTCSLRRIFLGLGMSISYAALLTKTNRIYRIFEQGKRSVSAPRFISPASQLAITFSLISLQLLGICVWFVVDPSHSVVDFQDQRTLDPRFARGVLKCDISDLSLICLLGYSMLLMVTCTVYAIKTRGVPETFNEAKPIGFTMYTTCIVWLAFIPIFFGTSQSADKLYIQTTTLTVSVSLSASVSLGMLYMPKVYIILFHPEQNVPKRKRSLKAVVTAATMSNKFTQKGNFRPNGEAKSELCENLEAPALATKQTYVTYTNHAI
row,SMILES,EC50
1,"O=c1[nH]c(-c2cc(Cl)ccn2)nc2ccc(OCCCc3ccncc3)cc12 [Compound 15, 2-(4-chloro-2-pyridyl)-6-[3-(4-pyridyl)propoxy]-3H-quinazolin-4-one hydrochloride]",100 to 1000 nM and < 1000 nM
2,"Cc1cc(OC[C@H]2CCOC2)cc2c(=O)[nH]c(-c3cc4ccsc4cn3)nc12 [Compound 80-S, S-8-Methyl-6-(tetrahydro-furan-3-ylmethoxy)-2-thieno[2,3-c]pyridin-5-yl-3H-quinazolin-4-one]",≤ 100 nM
3,"Cc1cc(OCCCc2ccncc2)cc2c(=O)[nH]c(-c3cc(C(F)(F)F)ccn3)nc12 [Compound 101, 8-Methyl-6-(3-pyridin-4-yl-propoxy)-2-(4-trifluoromethyl-pyridin-2-yl)-3H-quinazolin-4-one hydrochloride]",100 to 1000 nM
4,"O=c1[nH]c(-c2cc(C(F)(F)F)ccn2)nc2c(Cl)cc(CCN3CCOCC3)cc12 [Compound 154, 8-Chloro-6-(2-morpholinoethyl)-2-(4-(trifluoromethyl)pyridin-2-yl)quinazolin-4(3H)-one hydrochloride]",100 to 1000 nM
5,"Cc1cc(OCC2CCOC2)cc2c(=O)[nH]c(-c3cc(C(F)(F)F)ccn3)nc12 (stereo not drawn) [Compound 102, 8-Methyl-6-(tetrahydro-furan-3-ylmethoxy)-2-(4-trifluoromethyl-pyridin-2-yl)-3H-quinazolin-4-one]",≤ 100 nM
6,"Cc1cc(CN2CCN(C)C(=O)C2)cc2c(=O)[nH]c(-c3cc4sccc4cn3)nc12 [Compound 147, 8-Methyl-6-[(4-methyl-3-oxo-piperazin-1-yl)methyl]-2-thieno[3,2-c]pyridin-6-yl-3H-quinazolin-4-one hydrochloride]",≤ 100 nM
7,"O=c1[nH]c(-c2cc3ccsc3cn2)nc2cc(C(F)(F)F)c(OCCCc3ccncc3)cc12 [Compound 70, 6-(3-Pyridin-4-yl-propoxy)-2-thieno[2,3-c]pyridin-5-yl-7-trifluoromethyl-3H-quinazolin-4-one hydrochloride]",1000 to 10000 nM
8,"Cc1cc(CN2CCOCC2)cc2c(=O)[nH]c(-c3cc(C(F)(F)F)ccn3)nc12 [Compound 115, 8-methyl-6-(morpholinomethyl)-2-[4-(trifluoromethyl)-2-pyridyl]-3H-quinazolin-4-one hydrochloride]",≤ 100 nM
9,"Cc1cc(N2CCC3(CCOCC3)CC2)cc2c(=O)[nH]c(-c3cc4ccsc4cn3)nc12 [Compound 91, 8-Methyl-6-(3-oxa-9-aza-spiro[5.5]undec-9-yl)-2-thieno[2,3-c]pyridin-5-yl-3H-quinazolin-4-one]",≤ 100 nM
10,"O=c1[nH]c(-c2cc(C(F)(F)F)c(Cl)cn2)nc2ccc(OCCCc3ccncc3)cc12 [Compound 14, 2-[5-chloro-4-(trifluoromethyl)-2-pyridyl]-6-[3-(4-pyridyl)propoxy]-3H-quinazolin-4-one hydrochloride]",1000 to 10000 nM
11,"Cc1cc(OC2CCN(C3COC3)CC2)cc2c(=O)[nH]c(-c3cc(C(F)(F)F)ccn3)nc12 [Compound 104, 8-Methyl-6-(1-oxetan-3-yl-piperidin-4-yloxy)-2-(4-trifluoromethyl-pyridin-2-yl)-3H-quinazolin-4-one]",100 to 1000 nM
12,"O=c1[nH]c(-c2cc3ccsc3cn2)nc2ccc(OCCCc3ccncc3F)cc12 [Compound 59, 6-[3-(3-Fluoro-pyridin-4-yl)-propoxy]-2-thieno[2,3-c]pyridin-5-yl-3H-quinazolin-4-one]",100 to 1000 nM
13,"CCC(=O)N1CCN(c2ccc3nc(-c4cc(C(F)(F)F)ccn4)[nH]c(=O)c3c2)CC1 [Compound 54, 6-(4-Propionyl-piperazin-1-yl)-2-(4-trifluoromethyl-pyridin-2-yl)-3H-quinazolin-4-one]",1000 to 10000 nM
14,"Cc1cc(OCC2CCOC2)cc2c(=O)[nH]c(-c3cc4ccsc4cn3)nc12 (stereo not drawn) [Compound 80, 8-Methyl-6-(tetrahydro-furan-3-ylmethoxy)-2-thieno[2,3-c]pyridin-5-yl-3H-quinazolin-4-one]",≤ 100 nM
15,"CCc1ccnc(-c2nc3ccc(OCCCc4ccncc4)cc3c(=O)[nH]2)c1 [Compound 16, 2-(4-ethyl-2-pyridyl)-6-[3-(4-pyridyl)propoxy]-3H-quinazolin-4-one dihydrochloride]",1000 to 10000 nM
16,"Cc1cc(O[C@H]2CCN(C3COC3)C2)cc2c(=O)[nH]c(-c3cc4ccsc4cn3)nc12 [Compound 83-S, S-8-Methyl-6-(1-oxetan-3-yl-pyrrolidin-3-yloxy)-2-thieno[2,3-c]pyridin-5-yl-3H-quinazolin-4-one]",≤ 100 nM
17,"Cc1cc(N2CC3(CCOC3)C2)cc2c(=O)[nH]c(-c3cc4ccsc4cn3)nc12 [Compound 90, 8-Methyl-6-(6-oxa-2-aza-spiro[3.4]oct-2-yl)-2-thieno[2,3-c]pyridin-5-yl-3H-quinazolin-4-one]",≤ 100 nM
18,"Cc1cc(NCC(C)(C)O)cc2c(=O)[nH]c(-c3cc4ccsc4cn3)nc12 [Compound 94, 6-(2-Hydroxy-2-methyl-propylamino)-8-methyl-2-thieno[2,3-c]pyridin-5-yl-3H-quinazolin-4-one]",100 to 1000 nM
19,"COC1CCN(Cc2cc(C)c3nc(-c4cc5sccc5cn4)[nH]c(=O)c3c2)CC1 [Compound 152, 6-[(4-Methoxy-1-piperidyl)methyl]-8-methyl-2-thieno[3,2-c]pyridin-6-yl-3H-quinazolin-4-one hydrochloride]",≤ 100 nM
20,"Cc1cc(OC2CCN(C3COC3)CC2)cc2c(=O)[nH]c(-c3cc4cccn4cn3)nc12 [Compound 109, 8-methyl-6-(1-oxetan-3-yl-piperidin-4-yloxy)-2-pyrrolo[1,2-c]pyrimidin-3-yl-3H-quinazolin-4-one]",≤ 100 nM
21,"O=c1[nH]c(-c2cc(C(F)(F)F)ccn2)nc2ccc(OCCC3CCOCC3)cc12 [Compound 58, 6-[2-(Tetrahydro-pyran-4-yl)-ethoxy]-2-(4-trifluoromethyl-pyridin-2-yl)-3H-quinazolin-4-one]",100 to 1000 nM
22,"Cc1cc(N2CCC3(CCCOC3)C2)cc2c(=O)[nH]c(-c3cc4ccsc4cn3)nc12 (stereo not drawn) [Compound 92, 8-Methyl-6-(7-oxa-2-aza-spiro[4.5]dec-2-yl)-2-thieno[2,3-c]pyridin-5-yl-3H-quinazolin-4-one]",≤ 100 nM
23,"Cc1cc(OCCCc2ccncc2)cc2c(=O)[nH]c(-c3cc4cccn4cn3)nc12 [Compound 106, 8-methyl-6-(3-pyridin-4-yl-propoxy)-2-pyrrolo[1,2-c]pyrimidin-3-yl-3H-quinazolin-4-one hydrochloride]",≤ 100 nM
24,"Cc1cc(OCCN2CCC3(CC2)COC3)cc2c(=O)[nH]c(-c3cc4ccsc4cn3)nc12 [Compound 84, 8-Methyl-6-[2-(2-oxa-7-aza-spiro[3.5]non-7-yl)-ethoxy]-2-thieno[2,3-c]pyridin-5-yl-3H-quinazolin-4-one]",100 to 1000 nM
25,"Cc1cc(CCCN2CCOCC2)cc2c(=O)[nH]c(-c3cc4ccsc4cn3)nc12 [Compound 99, 8-Methyl-6-(3-morpholin-4-yl-propyl)-2-thieno[2,3-c]pyridin-5-yl-3H-quinazolin-4-one hydrochloride]",100 to 1000 nM
26,"O=c1[nH]c(-c2cc(C(F)(F)F)ccn2)nc2ncc(OCCCc3ccncc3)cc12 [Compound 68, 6-(3-Pyridin-4-yl-propoxy)-2-(4-trifluoromethyl-pyridin-2-yl)-3H-pyrido[2,3-d]pyrimidin-4-one hydrochloride]",> 10000 nM

# Same assay, conditions: up to 100 μM
row,SMILES,PAM activity on mGluR4
1,"O=c1[nH]c(-c2cccc(C(F)(F)F)c2)nc2ccc(OCCCc3ccncc3)cc12 [Compound 21, 6-[3-(4-pyridyl)propoxy]-2-[3-(trifluoromethyl)phenyl]-3H-quinazolin-4-one hydrochloride]",no PAM activity
2,"Cn1c(-c2cc3sccc3cn2)nc2ccc(OCCCc3ccncc3)cc2c1=O [Compound 38, 3-Methyl-6-(3-pyridin-4-yl-propoxy)-2-thieno[3,2-c]pyridin-6-yl-quinazolin-4-one]",no PAM activity
3,"Cl.O=c1[nH]c(-c2cccnc2)nc2ccc(OCCCc3ccncc3)cc12 [Compound 6, 2-Pyridin-3-yl-6-(3-pyridin-4-yl-propoxy)-3H-quinazolin-4-one hydrochloride]",no PAM activity
4,"Cl.O=c1[nH]c(-c2cccc(Cl)c2)nc2ccc(OCCCc3ccncc3)cc12 [Compound 20, 2-(3-chlorophenyl)-6-[3-(4-pyridyl)propoxy]-3H-quinazolin-4-one hydrochloride]",no PAM activity
